These are literature values, as cited in paper PMC10427817, “Bioactivities of β-mangostin and its new glycoside derivatives synthesized by enzymatic reactions” (Royal Society Open Science, 2023).

pIC50: −log10 of the molar value. Where two headings read alike, the source gives them in different places.

As usually defined, the pIC50 is the negative decadic logarithm of the IC50, by convention in mol/L.

For one data set, the system named is BuChE. As to conditions: cited from earlier work.
The next data set concerns the target AChE (Homo sapiens, UniProt P22303). As to conditions: ref 32; cited from earlier work.

Sequence of AChE (P22303 32-614): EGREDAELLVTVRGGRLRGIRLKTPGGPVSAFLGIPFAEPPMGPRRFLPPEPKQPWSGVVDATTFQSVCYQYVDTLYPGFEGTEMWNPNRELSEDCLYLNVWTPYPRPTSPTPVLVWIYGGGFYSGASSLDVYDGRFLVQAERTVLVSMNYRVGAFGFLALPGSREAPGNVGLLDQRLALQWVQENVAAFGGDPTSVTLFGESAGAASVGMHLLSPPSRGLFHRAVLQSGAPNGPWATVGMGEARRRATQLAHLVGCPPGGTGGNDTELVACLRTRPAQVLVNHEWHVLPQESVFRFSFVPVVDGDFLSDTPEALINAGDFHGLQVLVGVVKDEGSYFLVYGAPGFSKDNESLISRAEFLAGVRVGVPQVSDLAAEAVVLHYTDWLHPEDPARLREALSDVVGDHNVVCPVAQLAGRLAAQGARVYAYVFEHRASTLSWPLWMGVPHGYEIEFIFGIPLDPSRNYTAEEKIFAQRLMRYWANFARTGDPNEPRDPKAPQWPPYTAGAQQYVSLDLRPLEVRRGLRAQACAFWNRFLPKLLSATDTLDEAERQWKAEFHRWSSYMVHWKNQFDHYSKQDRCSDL

On to `O=c1c2ccccc2oc2cc(OCCN3CCCC3)cc(O)c12` [3-(2-(pyrrolidinyl)ethoxy)-1-hydroxy-9H-xanthen-9-one], for which the pIC50 was 4.51 in the data set on BuChE (ref 32) and 5.62 at AChE.

In the case of `COc1c(O)cc2oc3cc(O)c(CC(O)C(C)(C)O)c(O)c3c(=O)c2c1CCC(C)C` (stereo not drawn) [compound (5), 2-(2,3-dihydroxy-3-methylbutyl)-1,3,6-trihydroxy-8-isopentyl-7-methoxy-9H-xanthen-9-one], the pIC50 with BuChE (ref 31) was 5.12.
